According to patent publication US9067949B2, “Benzofuro[3,2-c] pyridines and related analogs as serotonin sub-type 6 (5-HT6) modulators for the treatment of obesity, metabolic syndrome, cognition and schizophrenia” (Albany Molecular Research, Inc., priority 2011, dated 2015):
Read-outs that look alike come from different tables or passages of the source.

Legend:
human 5-HT6 receptor = human 5-HT6 receptor (Homo sapiens (Human), UniProt P50406); test: 5-HT6 radioligand binding assay (SPA format, [N-methyl-3H]-LSD); conditions: human 5-HT6 receptor membranes, 10 nM [N-methyl-3H]-LSD, Ki by Cheng-Prusoff, read-out: human 5HT6 Ki
human 5-HT6 receptor, sequence (P50406 whole entry): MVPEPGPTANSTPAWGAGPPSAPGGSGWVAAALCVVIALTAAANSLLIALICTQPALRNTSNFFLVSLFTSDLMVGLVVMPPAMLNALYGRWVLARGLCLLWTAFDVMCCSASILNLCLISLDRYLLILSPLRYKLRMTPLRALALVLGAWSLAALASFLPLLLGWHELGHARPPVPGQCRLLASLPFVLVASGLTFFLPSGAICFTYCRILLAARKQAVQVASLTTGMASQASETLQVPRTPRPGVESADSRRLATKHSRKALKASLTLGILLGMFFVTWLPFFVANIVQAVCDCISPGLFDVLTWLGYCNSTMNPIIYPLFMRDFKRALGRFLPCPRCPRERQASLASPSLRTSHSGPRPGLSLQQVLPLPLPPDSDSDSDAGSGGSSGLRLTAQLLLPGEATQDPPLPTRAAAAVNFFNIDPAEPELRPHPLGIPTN
In short: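 Human 5-HT6 receptor membranes were incubated overnight at room temperature with 10 nM [N-methyl-3H]-LSD and competitor in 50 mM Tris-HCl pH 7.5, 5 mM MgCl2, 1 mM EDTA, 4% DMSO, read by SPA. Nonspecific binding was defined with 100 μM 5-HT. IC50 came from ten-point duplicate curves; Ki via Cheng-Prusoff.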

In the case of Cc1cn(S(=O)(=O)c2ccc3oc4c(c3c2)CNCC4)c2ccccc12.Cl [Example 43, 8-(3-Methyl-1H-indol-1-ylsulfonyl)-1,2,3,4-tetrahydrobenzofuro[3,2-c]pyridine hydrochloride], the melting point is reported as 293 to 296 °C and the Ki (human 5-HT6 receptor) is reported as 0.42 nM.

Cl.O=S(=O)(c1ccccc1)c1cc(CCO)c2oc3c(c2c1)CNCC3 [Example 79, 2-(8-(phenylsulfonyl)-1,2,3,4-tetrahydrobenzofuro[3,2-c]pyridin-6-yl)ethanol hydrochloride] showed a melting point of 239 to 240 °C and a Ki (human 5-HT6 receptor) of 4.3 nM.

Cl.O=S(=O)(c1ccc(F)cc1)c1ccc2oc3c(c2c1)CNCC3 [Example 31, 8-(4-Fluorophenylsulfonyl)-1,2,3,4-tetrahydrobenzofuro[3,2-c]pyridine hydrochloride] showed a melting point of 270 to 280 °C and a Ki (human 5-HT6 receptor) of 43 nM.

For Cl.O=S(=O)(c1ccccc1)c1ccc2c3c(oc2c1)CCNC3 [Example 60, 7-(Phenylsulfonyl)-1,2,3,4-tetrahydrobenzofuro[3,2-c]pyridine hydrochloride], the melting point was 235 to 238 °C and the Ki (human 5-HT6 receptor) was 9.8 nM.

With Cl.[O-][S+](c1ccccc1)c1cc(Cl)c2oc3c(c2c1)CNCC3 (centres unmarked) [Example 93, 6-chloro-8-(phenylsulfinyl)-1,2,3,4-tetrahydrobenzofuro[3,2-c]pyridine hydrochloride] the melting point was 264 to 272 °C (dec.) and the Ki (human 5-HT6 receptor; hydrochloride) was 10 nM.

Cl.O=S(=O)(c1ccc2oc3c(c2c1)CNCC3)n1ccc2ccc(F)cc21 [Example 42, 8-(6-fluoro-1H-indol-1-ylsulfonyl)-1,2,3,4-tetrahydrobenzofuro[3,2-c]pyridine hydrochloride] showed a melting point of 199 to 203 °C and a Ki (human 5-HT6 receptor) of 1.5 nM.

Cl.O=S(=O)(c1cccc(Cl)c1)c1ccc2c3c(oc2c1)CCNC3 [Example 62, 7-(3-Chlorophenylsulfonyl)-1,2,3,4-tetrahydrobenzofuro[3,2-c]pyridine hydrochloride] showed a melting point of 288 to 292 °C and a Ki (human 5-HT6 receptor) of 1.7 nM.

With Cl.O=S(=O)(c1cccc(Cl)c1)c1ccc2oc3c(c2c1)CNCC3 [Example 30, 8-(3-Chlorophenylsulfonyl)-1,2,3,4-tetrahydrobenzofuro[3,2-c]pyridine hydrochloride] the melting point was 245 to 252 °C (dec.) and the Ki (human 5-HT6 receptor) was 6.2 nM.

For CC1CNCc2c1oc1c(Cl)cc(S(=O)(=O)c3ccccc3)cc21.Cl (centres unmarked) [Example 89, 6-chloro-4-methyl-8-(phenylsulfonyl)-1,2,3,4-tetrahydrobenzofuro[3,2-c]pyridine hydrochloride], the melting point was 291 to 292 °C (dec.) and the Ki (human 5-HT6 receptor) was 110 nM.

With CC(O)Cc1cc(S(=O)(=O)c2ccccc2)cc2c3c(oc12)CCNC3.Cl (centres unmarked) [Example 80, 1-(8-(phenylsulfonyl)-1,2,3,4-tetrahydrobenzofuro[3,2-c]pyridin-6-yl)propan-2-ol hydrochloride] the melting point was 283 to 284 °C and the Ki (human 5-HT6 receptor) was 19 nM.

Work on CN1CCc2oc3ccc(S(=O)(=O)c4ccccc4)cc3c2C1.Cl [Example 27, 2-Methyl-8-(phenylsulfonyl)-1,2,3,4-tetrahydrobenzofuro[3,2c]pyridine hydrochloride] yielded a melting point of 272 °C and a Ki (human 5-HT6 receptor) of 6.5 nM.

With Cl.O=S(=O)(c1ccccc1)c1ccc2oc3c(c2c1)CNCC3 [Example 28, 8-(Phenylsulfonyl)-1,2,3,4-tetrahydrobenzofuro[3,2-c]pyridine hydrochloride] the melting point was 243 °C and the Ki (human 5-HT6 receptor) was 19 nM.

For CC1NCCc2oc3c(Cl)cc(S(=O)(=O)c4ccccc4)cc3c21.Cl (single isomer, unassigned; (+)) [Example 82a, (+)-6-chloro-1-methyl-8-(phenylsulfonyl)-1,2,3,4-tetrahydrobenzofuro[3,2-c]pyridine hydrochloride], the melting point was 295 °C (dec.) and the Ki (human 5-HT6 receptor; hydrochloride) was 56 nM.

With CC(c1ccccc1)c1cc(Cl)c2oc3c(c2c1)CNCC3.Cl (centres unmarked) [Example 95, 6-chloro-8-(1-phenylethyl)-1,2,3,4-tetrahydrobenzofuro[3,2-c]pyridine hydrochloride] the melting point was 245 to 255 °C (dec.) and the Ki (human 5-HT6 receptor) was 7.5 nM.

Compound Cl.O=S(=O)(c1ccccc1)c1cc(Cl)c2oc3c(c2c1)C(CO)NCC3 (centres unmarked) [Example 85, (6-chloro-8-(phenylsulfonyl)-1,2,3,4-tetrahydrobenzofuro[3,2-c]pyridin-1-yl)methanol hydrochloride] has a melting point of 185 to 187 °C and a Ki (human 5-HT6 receptor) of 1.6 nM.

With Cl.OC(c1ccccc1)c1cc(Cl)c2oc3c(c2c1)CNCC3 (centres unmarked) [Example 94, (6-chloro-1,2,3,4-tetrahydrobenzofuro[3,2-c]pyridin-8-yl)(phenyl)methanol hydrochloride] the melting point was 260 °C (dec.) and the Ki (human 5-HT6 receptor) was 143 nM.

Cl.O=S(=O)(c1ccc2oc3c(c2c1)CNCC3)c1cccc2ccccc12 [Example 39, 8-(1-Naphthylsulfonyl)-1,2,3,4-tetrahydrobenzofuro[3,2-c]pyridine hydrochloride] showed a melting point of 200 to 202 °C and a Ki (human 5-HT6 receptor) of 5 nM.

O=S(=O)(c1ccccc1)c1cc(Cl)c2oc3c(c2c1)CC(O)CC3 (single isomer, unassigned; (-)) [Example 98, (−)-6-chloro-8-(phenylsulfonyl)-1,2,3,4-tetrahydrodibenzo[b,d]furan-2-ol] gave a melting point of 236 to 240 °C and a Ki (human 5-HT6 receptor) of 46 nM.

In the case of Cl.O=S(=O)(c1ccc(Cl)cc1)c1cc(Cl)c2oc3c(c2c1)CNCC3 [Example 49, 6-Chloro-8-(4-chlorophenylsulfonyl)-1,2,3,4-tetrahydrobenzofuro[3,2-c]pyridine hydrochloride], the melting point is reported as 282 to 284 °C and the Ki (human 5-HT6 receptor) is reported as 1.9 nM.

Cl.N#Cc1cccc(S(=O)(=O)c2cc(Cl)c3oc4c(c3c2)CNCC4)c1 [Example 48, 6-Chloro-8-(3-cyanophenylsulfonyl)-1,2,3,4-tetrahydrobenzofuro[3,2-c]pyridine hydrochloride] showed a melting point of 272 to 274 °C and a Ki (human 5-HT6 receptor) of 12 nM.

Cc1cn(S(=O)(=O)c2ccc3oc4c(c3c2)C2CCC(C4)N2)c2ccccc12.Cl (centres unmarked) [Example 58, 2-(3-Methyl-1H-indol-1-yl)sulfonyl-6,7,8,9,10-pentahydro-7,10-epiminocyclohepta[b]benzofuran hydrochloride] showed a melting point of 195 to 199 °C and a Ki (human 5-HT6 receptor) of 16 nM.

In the case of Cl.Cn1cc(S(=O)(=O)c2cc(Cl)c3oc4c(c3c2)CNCC4)c2ccccc21 [Example 50, 6-Chloro-8-(1-methyl-1H-indol-3-ylsulfonyl)-1,2,3,4-tetrahydrobenzofuro[3,2-c]pyridine], the melting point is reported as 262 to 264 °C and the Ki (human 5-HT6 receptor) is reported as 0.17 nM.

Cl.O=S(=O)(c1ccc2c3c(oc2c1)CC1CCC3N1)n1ccc2ccccc21 (centres unmarked) [Example 67, 3-(1H-indol-1-yl)sulfonyl-6,7,8,9,10-pentahydro-7,10-epiminocyclohepta[b]benzofuran hydrochloride] showed a melting point of 192 to 196 °C and a Ki (human 5-HT6 receptor) of 34 nM.

Work on Cl.O=S(=O)(c1cccc(Cl)c1)c1ccc2oc3c(c2c1)C1CCC(C3)N1 (centres unmarked) [Example 56, 2-(3-Chlorophenyl)sulfonyl-6,7,8,9,10-pentahydro-7,10-epiminocyclohepta[b]benzofuran hydrochloride] yielded a melting point of 285 to 288 °C and a Ki (human 5-HT6 receptor) of 31 nM.

In the case of COc1cc(Cc2ccccc2)cc2c3c(oc12)CCNC3.Cl [Example 96, 8-benzyl-6-methoxy-1,2,3,4-tetrahydrobenzofuro[3,2-c]pyridine hydrochloride], the melting point is reported as 263 to 265 °C and the Ki (human 5-HT6 receptor) is reported as 4.9 nM.
